In test [1] the target is T1, human cannabinoid receptor type 2 (Homo sapiens, UniProt P34972).
T1 construct: expressed in transfected cells; membrane preparation
The experiment in a line: Human CB2 Radioligand Binding Assay. The note with it: competition with [3H] CP-55,940; membranes from stably transfected CHO CB2 cells; read-out: CB2 Ligand Binding Asssay EC50. The gist of the method:
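Test compounds (10 uM final, or dose-response) competed with [3H]CP-55,940, used at the Kd determined per membrane lot, for binding to stable human CB2-CHO membranes over 90 min at 30° C in pH 7.4 Tris/EGTA/MgCl2/BSA buffer. GF/C filtration then scintillation counting; 100 nM CP-55,940 defined 100% efficacy.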

For test [2], the target named is T2, human cannabinoid receptor type 1 (Homo sapiens, UniProt P21554).
T2 construct: purchased Perkin Elmer RBHCB1M; host or cells: HEK 293 EBNA cells
T2 sequence (P21554 whole entry): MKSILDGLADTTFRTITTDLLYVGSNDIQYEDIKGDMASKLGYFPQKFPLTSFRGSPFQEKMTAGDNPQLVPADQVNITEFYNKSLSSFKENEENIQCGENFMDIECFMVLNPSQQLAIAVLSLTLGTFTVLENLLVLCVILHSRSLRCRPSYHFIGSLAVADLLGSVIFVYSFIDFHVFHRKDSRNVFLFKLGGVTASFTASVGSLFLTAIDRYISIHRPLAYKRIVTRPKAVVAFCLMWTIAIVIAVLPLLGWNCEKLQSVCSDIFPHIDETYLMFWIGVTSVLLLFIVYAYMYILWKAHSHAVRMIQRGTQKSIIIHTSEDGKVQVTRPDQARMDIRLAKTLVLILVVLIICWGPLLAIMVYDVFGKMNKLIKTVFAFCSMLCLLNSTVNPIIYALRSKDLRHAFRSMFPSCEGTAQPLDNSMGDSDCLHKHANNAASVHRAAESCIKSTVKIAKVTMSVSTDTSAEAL
The test is described as follows: Human CB1 Radioligand Binding Assay (basis of selectivity, CB2 vs. CB1). The following applies: CB1: HEK 293 EBNA cells expressing human CB1; CB2: CHO CB2 membranes. Here is the method: 2. Human CB1 Radioligand Binding Assay
The incubation buffer was composed of 50 mM Tris-HCl pH 7.4, 2.5 mM EDTA, 5 mM MgCl2, 5.0 mg/ml fatty acid free BSA and the wash buffer was composed of 50 mM Tris-HCl pH 7.4, 2.5 mM EDTA, 5 mM MgCl2, 0.5 mg/ml fatty acid free BSA.

Where only a bound is given, the exact number is not on record here.

T1 sequence (P34972 whole entry): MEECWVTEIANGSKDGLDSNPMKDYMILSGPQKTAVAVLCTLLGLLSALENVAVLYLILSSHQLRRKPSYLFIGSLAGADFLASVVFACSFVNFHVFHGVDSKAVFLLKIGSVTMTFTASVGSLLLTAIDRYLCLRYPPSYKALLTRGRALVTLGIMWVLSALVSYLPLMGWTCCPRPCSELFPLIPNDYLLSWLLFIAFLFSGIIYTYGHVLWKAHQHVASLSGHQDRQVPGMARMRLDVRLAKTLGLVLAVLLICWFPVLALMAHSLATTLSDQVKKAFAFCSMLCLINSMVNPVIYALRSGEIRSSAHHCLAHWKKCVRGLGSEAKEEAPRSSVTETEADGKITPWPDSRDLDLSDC

Take `Clc1ccnc(N2CCN(c3nc(-c4ccccc4Cl)nc4ccccc34)CC2)n1` [Example 198]: in test [1], the EC50 is > 1000 nM. In addition, the “Selectivity, CB2 vs. CB1” value in test [2] was “− (− indicates ≦ 10−fold)”.
Consider `CC(=O)N1CCN(c2nc(-c3ccc(Cl)cc3)nc3ccccc23)CC1` [Example 199, 1-(4-(2-(4-Chlorophenyl)quinazolin-4-yl)piperazin-1-yl)ethanone], for which the EC50 in test [1] was > 1000 nM. The “Selectivity, CB2 vs. CB1” value in test [2] is on record as “− (− indicates ≦ 10−fold)”.
With `CCOC(=O)N1CCN(c2nc(-c3ccc(Cl)cc3)nc3ccccc23)CC1` [Example 200, Ethyl 4-(2-(4-chlorophenyl)quinazolin-4-yl)piperazine-1-carboxylate], in test [1], the EC50 was > 1000 nM. The “Selectivity, CB2 vs. CB1” value in test [2] is “− (− indicates ≦ 10−fold)”.
Regarding `CC(=O)N1CCN(c2nc(-c3ccc(C(C)(C)C)cc3)nc3ccccc23)CC1` [Example 201, 1-(4-(2-(4-tert-Butylphenyl)quinazolin-4-yl)piperazin-1-yl)ethanone], in test [1], the EC50 is < 1000 nM. Moreover, in test [2], the “Selectivity, CB2 vs. CB1” value was “+ (+ indicates > 10−fold)”.
On to `CC(=O)N1CCN(c2nc(-c3ccc(Cl)cc3Cl)nc3ccccc23)CC1` [Example 202, 1-(4-(2-(2,4-Dichlorophenyl)quinazolin-4-yl)piperazin-1-yl)ethanone], for which the EC50 in test [1] was < 1000 nM. Moreover, the “Selectivity, CB2 vs. CB1” value in test [2] was “− (− indicates ≦ 10−fold)”.
On to `CCOC(=O)N1CCN(c2nc(-c3ccc(Cl)cc3Cl)nc3ccccc23)CC1` [Example 203, Ethyl 4-(2-(2,4-dichlorophenyl)quinazolin-4-yl)piperazine-1-carboxylate], for which the EC50 in test [1] was > 1000 nM. The “Selectivity, CB2 vs. CB1” value in test [2] was “− (− indicates ≦ 10−fold)”.
With `FC(F)(F)Oc1ccc2nc(-c3ccccc3Cl)nc(N3CCSCC3)c2c1` [Example 204, 4-(2-(2-Chlorophenyl)-6-(trifluoromethoxy)quinazolin-4-yl)thiomorpholine], in test [1], the EC50 was < 1000 nM. Moreover, the “Selectivity, CB2 vs. CB1” value in test [2] is recorded as “− (− indicates ≦ 10−fold)”.
Take `Clc1ccc2nc(-c3ccccc3Cl)nc(N3CCCC3)c2c1` [Example 205, 6-Chloro-2-(2-chlorophenyl)-4-(pyrrolidin-1-yl)quinazoline]: in test [1], the EC50 was < 1000 nM. The “Selectivity, CB2 vs. CB1” value in test [2] is recorded as “+ (+ indicates > 10−fold)”.
In the case of `CCOC(=O)N1CCN(c2nc(-c3ccccc3Cl)nc3ccc(Cl)cc23)CC1` [Example 206, Ethyl 4-(6-chloro-2-(2-chlorophenyl)quinazolin-4-yl)piperazine-1-carboxylate], the EC50 in test [1] was > 1000 nM. The “Selectivity, CB2 vs. CB1” value in test [2] is listed as “− (− indicates ≦ 10−fold)”.
Regarding `Clc1ccc2nc(-c3ccccc3Cl)nc(N3CCSCC3)c2c1` [Example 207, 4-(6-Chloro-2-(2-chlorophenyl)quinazolin-4-yl)thiomorpholine], the EC50 in test [1] is < 1000 nM. The “Selectivity, CB2 vs. CB1” value in test [2] is “− (− indicates ≦ 10−fold)”.
On to `CN1CCN(c2nc(-c3ccccc3Cl)nc3ccc(Cl)cc23)CC1` [Example 208, 6-Chloro-2-(2-chlorophenyl)-4-(4-methylpiperazin-1-yl)quinazoline], for which the EC50 in test [1] was < 1000 nM. For the same compound, in test [2], the “Selectivity, CB2 vs. CB1” value is “+ (+ indicates > 10−fold)”.
As for `Clc1ccc(-c2nc(N3CCCC3)c3cc(Cl)ccc3n2)cc1` [Example 209, 6-Chloro-2-(4-chlorophenyl)-4-(pyrrolidin-1-yl)quinazoline], the EC50 in test [1] is > 1000 nM. The “Selectivity, CB2 vs. CB1” value in test [2] is listed as “− (− indicates ≦ 10−fold)”.
For `Clc1ccc(-c2nc(N3CCSCC3)c3cc(Cl)ccc3n2)cc1` [Example 211, 4-(6-Chloro-2-(4-chlorophenyl)quinazolin-4-yl)thiomorpholine], the EC50 in test [1] was > 1000 nM. Also, in test [2], the “Selectivity, CB2 vs. CB1” value is given as “− (− indicates ≦ 10−fold)”.
Regarding `CN1CCN(c2nc(-c3ccc(Cl)cc3)nc3ccc(Cl)cc23)CC1` [Example 212, 6-Chloro-2-(4-chlorophenyl)-4-(4-methylpiperazin-1-yl)quinazoline], the EC50 in test [1] is > 1000 nM. Besides, the “Selectivity, CB2 vs. CB1” value in test [2] is given as “− (− indicates ≦ 10−fold)”.
Regarding `CCOC(=O)N1CCN(c2nc(-c3ccccc3Cl)nc3ccc(OC)cc23)CC1` [Example 217, Ethyl 4-(2-(2-chlorophenyl)-6-methoxyquinazolin-4-yl)piperazine-1-carboxylate], in test [1], the EC50 is < 1000 nM. For the same compound, the “Selectivity, CB2 vs. CB1” value in test [2] is reported as “+ (+ indicates > 10−fold)”.
Consider `CCOC(=O)N1CCN(c2nc(C3CCCCC3)nc3ccc(OC)cc23)CC1` [Example 218, Ethyl 4-(2-cyclohexyl-6-methoxyquinazolin-4-yl)piperazine-1-carboxylate], for which the EC50 in test [1] was > 1000 nM. Further, in test [2], the “Selectivity, CB2 vs. CB1” value is listed as “− (− indicates ≦ 10−fold)”.
On to `CCOC(=O)N1CCN(c2nc(-c3ccccc3Cl)nc3ccc(C(C)(C)C)cc23)CC1` [Example 219, Ethyl 4-(6-tert-butyl-2-(2-chlorophenyl)quinazolin-4-yl)piperazine-1-carboxylate], for which the EC50 in test [1] was < 1000 nM. Besides, the “Selectivity, CB2 vs. CB1” value in test [2] was “+ (+ indicates > 10−fold)”.
Regarding `CCOC(=O)N1CCN(c2nc(-c3ccc(F)c(F)c3)nc3ccccc23)CC1` [Example 220, Ethyl 4-(2-(3,4-difluorophenyl)quinazolin-4-yl)piperazine-1-carboxylate], in test [1], the EC50 is > 1000 nM. Also, in test [2], the “Selectivity, CB2 vs. CB1” value is “− (− indicates ≦ 10−fold)”.
On the same counts, the results for `CCOC(=O)N1CCN(c2nc(C3CCCCC3)nc3ccc(Cl)cc23)CC1` [Example 221, Ethyl 4-(6-chloro-2-cyclohexylquinazolin-4-yl)piperazine-1-carboxylate] are < 1000 nM and “+ (+ indicates > 10−fold)”.
On the same counts, the results for `FC(F)(F)Oc1ccc2nc(-c3ccc(Cl)cc3)nc(N3CCCC3)c2c1` [Example 222, 2-(4-Chlorophenyl)-4-(pyrrolidin-1-yl)-6-(trifluoromethoxy)quinazoline] are < 1000 nM and “− (− indicates ≦ 10−fold)”.
Consider `CCOC(=O)N1CCN(c2nc(-c3ccc(Cl)cc3)nc3ccc(OC(F)(F)F)cc23)CC1` [Example 223, Ethyl 4-(2-(4-chlorophenyl)-6-(trifluoromethoxy)quinazolin-4-yl)piperazine-1-carboxylate], for which, in test [1], the EC50 was > 1000 nM. Moreover, the “Selectivity, CB2 vs. CB1” value in test [2] was “− (− indicates ≦ 10−fold)”.
As to `FC(F)(F)Oc1ccc2nc(-c3ccc(Cl)cc3)nc(N3CCSCC3)c2c1` [Example 224, 4-(2-(4-Chlorophenyl)-6-(trifluoromethoxy)quinazolin-4-yl)thiomorpholine], the half-maximal effective concentration (EC50) in test [1] is > 1000 nM. Also, in test [2], the “Selectivity, CB2 vs. CB1” value is “− (− indicates ≦ 10−fold)”.
Take `CN1CCN(c2nc(-c3ccc(Cl)cc3)nc3ccc(OC(F)(F)F)cc23)CC1` [Example 225, 2-(4-Chlorophenyl)-4-(4-methylpiperazin-1-yl)-6-(trifluoromethoxy)quinazoline]: the EC50 in test [1] was < 1000 nM. Besides, the “Selectivity, CB2 vs. CB1” value in test [2] is on record as “+ (+ indicates > 10−fold)”.
Turning to `COC(=O)N1CCN(c2nc(-c3ccccc3Cl)nc3ccccc23)CC1` [Example 226, Methyl 4-(2-(2-chlorophenyl)quinazolin-4-yl)piperazine-1-carboxylate], the EC50 in test [1] was < 1000 nM. Further, the “Selectivity, CB2 vs. CB1” value in test [2] is on record as “+ (+ indicates > 10−fold)”.
Taken in the same sequence, the figures for `Clc1ccccc1-c1nc(N2CCCC2)c2cccc(Cl)c2n1` [Example 227, 8-Chloro-2-(2-chlorophenyl)-4-(pyrrolidin-1-yl)quinazoline] were < 1000 nM and “− (− indicates ≦ 10−fold)”.
Take `CN1CCN(c2nc(-c3ccccc3Cl)nc3c(Cl)cccc23)CC1` [Example 228, 8-Chloro-2-(2-chlorophenyl)-4-(4-methylpiperazin-1-yl)quinazoline]: the EC50 in test [1] was > 1000 nM. In addition, in test [2], the “Selectivity, CB2 vs. CB1” value is “− (− indicates ≦ 10−fold)”.
For the compound `COC(CN(C)c1nc(-c2ccccc2Cl)nc2ccccc12)OC` [Example 229, 2-(2-Chlorophenyl)-N-(2,2-dimethoxyethyl)-N-methylquinazolin-4-amine], the EC50 in test [1] was > 1000 nM. For the same compound, the “Selectivity, CB2 vs. CB1” value in test [2] is recorded as “− (− indicates ≦ 10−fold)”.
In the case of `CCCOC(=O)N1CCN(c2nc(-c3ccccc3Cl)nc3cccc(Cl)c23)CC1` [Example 231, Propyl 4-(5-chloro-2-(2-chlorophenyl)quinazolin-4-yl)piperazine-1-carboxylate], the EC50 in test [1] was > 1000 nM. For the same compound, in test [2], the “Selectivity, CB2 vs. CB1” value is “− (− indicates ≦ 10−fold)”.
`CCCC(=O)N1CCN(c2nc(-c3ccccc3Cl)nc3cccc(Cl)c23)CC1` [Example 232, 1-(4-(5-Chloro-2-(2-chlorophenyl)quinazolin-4-yl)piperazin-1-yl)butan-1-one]: the EC50 in test [1] was < 1000 nM. For the same compound, the “Selectivity, CB2 vs. CB1” value in test [2] is given as “+ (+ indicates > 10−fold)”.
On the same counts, the results for `CC(=O)N1CCN(c2nc(-c3ccccc3Cl)nc3cc(Cl)ccc23)CC1` [Example 233, 1-(4-(7-Chloro-2-(2-chlorophenyl)quinazolin-4-yl)piperazin-1-yl)ethanone] are < 1000 nM and “− (− indicates ≦ 10−fold)”.
On the same counts, the results for `CCOC(=O)N1CCN(c2nc(-c3ccccc3Cl)nc3cc(Cl)ccc23)CC1` [Example 234, Ethyl 4-(7-chloro-2-(2-chlorophenyl)quinazolin-4-yl)piperazine-1-carboxylate] are > 1000 nM and “− (− indicates ≦ 10−fold)”.

The record behind these values is patent US20090209536A1, “AMINOQUINAZOLINE CANNABINOID RECEPTOR MODULATORS FOR TREATMENT OF DISEASE” (KALYPSYS, INC., priority 2007, published 2009).
